Read-outs that look alike come from different tables or passages of the source.
How the values were obtained:
[1] = test system: uterus; assay: uterine contraction in situ in nonpregnant rat; assay type: in vivo, rat (Sprague-Dawley); conditions: i.v., DES-pretreated anesthetized rats
Description: 2. OT antagonist activity in the nonpregnant rat
The procedure for measuring isometric contraction of the uterus in situ was adapted from that of Chan et al. [1974] as previously described [Pettibone et al., 1989]. Sprague-Dawley rats (200-300 g, Taconic Farms, Germantown, N.Y.) pretreated with DES (0.25 mg/kg, i.p.; 18 h) were anesthetized with urethane (1.75 g/kg, i.p.), a tracheal cannula was inserted, and a femoral vein was cannulated. The left uterine horn was exposed, and the anterior part of the horn was secured with surgical silk to an anchor post. A second ligature about 3 cm posterior to the first tie was connected to a force transducer and maintained at a tension of 1 g. Signals from the transducer were amplified and recorded. The contractile response of the uterus to OT was quantified by computerized measurement of the area under the contraction-time curve for a 10-min period immediately after the injection of OT. The following protocol was adopted for most experiments. […] The contractile response obtained from the third injection was set as 100%. Areas determined after each injection was expressed as a percentage of the area obtained for the third injection. […] The dose of test compound required to reduce the response to OT by 50% (AD50) was calculated from the contractile areas obtained after the fourth injection of OT (i.e., 5 min postinfusion of test compound). […]

[2] = biological target: T1, oxytocin receptor ([^3 H]OT binding, uterine tissue) (Rattus norvegicus, UniProt P70536); assay: [3H]oxytocin radioligand binding competition assay, rat uterus; design: species or system rat (Sprague-Dawley)
T1 construct: tissue Taconic Farms, Germantown, N.Y. (animals); host or cells: uterus of nonpregnant adult Sprague-Dawley rats pretreated with diethylstilbestrol propionate, crude membranes
T1 sequence (P70536 1-388): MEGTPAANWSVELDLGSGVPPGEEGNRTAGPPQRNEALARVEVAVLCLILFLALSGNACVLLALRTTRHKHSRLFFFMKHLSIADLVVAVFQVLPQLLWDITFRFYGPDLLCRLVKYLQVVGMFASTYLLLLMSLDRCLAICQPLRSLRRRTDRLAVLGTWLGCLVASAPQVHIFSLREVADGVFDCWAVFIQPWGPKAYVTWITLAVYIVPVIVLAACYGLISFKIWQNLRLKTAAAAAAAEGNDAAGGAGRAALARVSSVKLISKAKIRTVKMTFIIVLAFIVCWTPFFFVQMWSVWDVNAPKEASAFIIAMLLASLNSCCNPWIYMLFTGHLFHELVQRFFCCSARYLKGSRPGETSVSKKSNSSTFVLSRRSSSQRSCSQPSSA
Description: RADIOLIGAND BINDING ASSAYS
Ther., 256(1): 304-308 (1991)]. Uterine tissue was taken from nonpregnant adult Sprague-Dawley rats (Taconic Farms, Germantown, N.Y.) pretreated (18-24 h) with diethylstilbestrol propionate (DES; 300 μg/kg, i.p.). Uterine tissue (full thickness) was also taken with informed consent from nonlabor pregnant women undergoing cesarean section at 38 to 39 weeks gestation (Oregon Health Sciences Center, Portland, Oreg.). Liver and kidney medulla samples were taken from male rats and from human surgical and early postmortem donors (National Disease Research Interchange, Philadelphia Pa.; Analytical Biological Services, Wilmington, Del.).
Nonspecific binding was determined using 1 μM unlabeled OT or AVP in their respective assays. The binding reactions were initiated by the addition of tissue preparation and terminated by filtration using a Skatron cell harvester (model 7019, Skatron, Inc., Sterling, Va.). […] The final protein concentration for the various tissues in each assay ranged from 150 to 300 μg/ml [Lowry, P. H.; Rosebrough, N. J.; Farr, A. L.; Randall, R. J.; J. Biol. Chem., 193:265-275 (1951)].
Data is either reported as a given percentage of inhibition at a specified concentration,or if an IC50 was calculated, as a nanomolar concentration.

[3] = cited from earlier work
[4] = compared with ritodrine; cited from earlier work

| SMILES | IC50 [2] | other results |
| --- | --- | --- |
| CC[C@H](C)[C@@H]1NC(=O)[C@H](Cc2ccc(O)cc2)NC(=O)[C@@H](N)CSSC[C@@H](C(=O)N2CCC[C@H]2C(=O)N[C@@H](CC(C)C)C(=O)NCC(N)=O)NC(=O)[C@H](CC(N)=O)NC(=O)[C@H](CCC(N)=O)NC1=O [OT, oxytocin] |  | ED50 dose of OT (uterine contraction) [1]: ~1 µg/kg |
| COc1cc(OC2CCN(c3c(O)c(=O)c3=O)CC2)ccc1CC(=O)N1CCN(c2ccccc2C)CC1C(N)=O (stereo not drawn) [Example 14, 1-(2-Methoxy-4-(1-(3-hydroxy-3-cyclobutene-1,2-dion-4-y)-4-piperidyloxy)phenylacetyl)-4-(2-methylphenyl)piperazine-2-carboxamide] |  | IC50 ([2]; read-out: Result For [^3 H]OT (IC50), rat uterus membranes, 1 nM [^3 H]OT): 24 nM |
| O=S(=O)([O-])[O-].[Mg+2] [Magnesium sulfate] |  | toxicity above therapeutic plasma range ([3]; plasma concentrations above 4 to 8 mg/dL): can cause inhibition of cardiac conduction and neuromuscular transmission, respiratory depression and cardiac arrest |
| CC(C)(C)NCC(O)c1ccc(O)c(CO)c1 (stereo not drawn) [albuterol] |  | side effects ([3]; in vivo): side effects similar to those of ritodrine |
| CC(NCCc1ccc(O)cc1)C(O)c1ccc(O)cc1 (stereo not drawn) [Ritodrine] |  | side effects ([3]; tocolytic use, in the mother): causes a number of cardiovascular and metabolic side effects in the mother, including tachycardia, increased renin secretion, hyperglycemia (and reactive hypoglycemia in the infant) |
| O=C(Nc1ccc(CC(=O)N2CCC3(C=Cc4ccccc43)CC2)cc1)c1ccc2cc[nH]c2c1 [Example 4, 1'-(4-(Indole-6-carboxylamino)phenylacetyl)spiro[1H]indene-1,4'-piperidine] | 1600 nM |  |
| CCO [Ethanol] |  | effectiveness in preventing premature labor [4]: as effective as ritodrine in preventing premature labor; reduction in incidence of fetal respiratory distress [4]: does not produce a corresponding reduction in the incidence of fetal respiratory distress |
| O=C(Nc1ccc(CC(=O)N2CCC3(C=Cc4ccccc43)CC2c2ccccc2)cc1)c1ccc2[nH]cnc2c1 (stereo not drawn) [Example 2, 1'-(4-(Benzimidazole-5-carboxylamino)phenylacetyl)-2'-phenylspiro[1H]indene-1,4'-piperidine] | 120 nM |  |
| CC(C)(C)NCC(O)c1cc(O)cc(O)c1 (stereo not drawn) [terbutaline] |  | side effects ([3]; tocolytic use, in the mother): side effects similar to those of ritodrine |
| COc1ccc(CC(=O)N2CCC3(C=Cc4ccccc43)CC2)c(OC)c1 [Example 1, 1'-(2,4-Dimethoxyphenylacetyl)-spiro[1H]indene-1,4'-piperidine] | 400 nM |  |

The next lines start with results.

| IC50 [2] | SMILES | other results |
| --- | --- | --- |
| 540 nM | COc1ccc(CC(=O)N2CCN(c3ccccc3C)CC2)c(OC)c1 [Example 6, 1-(2,4-Dimethoxyphenylacetyl)-4-(2-methylphenyl)piperazine] |  |
| 34 nM | COc1cc(OC2CCN(C(C)=O)CC2)ccc1CC(=O)N1CCN(c2ccccc2C)CC1C(N)=O (stereo not drawn) [Example 9, 1-(2-Methoxy-4-(1-acetyl-4-piperidyloxy)phenylacetyl)-4-(2-methylphenyl)piperazine-2-carboxamide] |  |
| 20 nM | COc1cc(OC2CCN(S(=O)(=O)CCNC3CC3)CC2)ccc1CC(=O)N1CCN(c2ccccc2C)CC1C(N)=O (stereo not drawn) [Example 12, 1-(2-Methoxy-4-(1-(2-(N-cyclopropylamino)-ethylsulfonyl)-4-piperidyloxy)phenylacetyl)-4-(2-methylphenyl)piperazine-2-carboxamide] |  |
| 80 nM | COc1ccc(CC(=O)N2CCN(c3ccccc3C)CC2C(N)=O)c(OC)c1 (stereo not drawn) [Example 7, 1-(2,4-Dimethoxyphenylacetyl)-4-(2-methylphenyl)piperazine-2-carboxamide] |  |
| 30 nM | Cc1ccccc1N1CCN(C(=O)Cc2ccc(NC(=O)c3ccc4[nH]cnc4c3)cc2)C(C(N)=O)C1 (stereo not drawn) [Example 8, 1-(4-(Benzimidazol-5-carboxylamino)phenylacetyl)-4-(2-methylphenyl)piperazine-2-carboxamide] |  |
| 28 nM | COc1cc(OC2CCN(Cc3cccnc3)CC2)ccc1CC(=O)N1CCN(c2ccccc2C)CC1C(N)=O (stereo not drawn) [Example 15, 1-(2-Methoxy-4-(-1-((pyrid-3-yl)methyl)-4-piperidyloxy)phenylacetyl)-4-(2-methylphenyl) piperazine-2-carboxamide] |  |
| 21 nM | CCN(CC)CCS(=O)(=O)N1CCC(Oc2ccc(CC(=O)N3CCN(c4ccccc4C)CC3C(N)=O)c(OC)c2)CC1 (stereo not drawn) [Example 11, 1-(2-Methoxy-4-(1-(2-(N,N-Diethylamino)ethylsulfonyl)-4-piperidyloxy)phenylacetyl)-4-(2-methylphenyl)piperazine-2-carboxamide] |  |
